Laboratory results from ChEMBL document CHEMBL5154737, “Semisynthesis and biological evaluation of (+)-sclerotiorin derivatives as antitumor agents for the treatment of hepatocellular carcinoma” (Eur J Med Chem, 2022).
Calls of active or inactive are those of the source. The rule behind the calls is not given here.

How the values were obtained:
[1] = Half life in Sprague-Dawley rat at 20 mg/kg, ip measured for 0.03 to 24 hrs by UPLC-MS analysis; type: ADME, organism-based; details: in vivo, time 0.03-24 hrs
Bel-7402 [2] = experiment: Induction of apoptosis in human Bel-7402 cells assessed as viable cells at 0.625 uM incubated for 24 hrs by Annexin V and dead cell assay kit (reference value: 91.00%); type: functional; details: read-out: Activity
[3] = Toxicity in BALB/c nude mouse xenografted with Bel-7402 cells assessed as change in body weight at 20 mg/kg, ip qd measured every 2 days for 14 days; type: organism-based; details: in vivo, 336 h, time 14 day
[4] = Toxicity in BALB/c nude mouse xenografted with human Bel-7402 cells assessed as behavioural change at 10 to 20 mg/kg, ip bid; type: organism-based; details: in vivo, dose 10-20 mg/kg
Bel-7402 [5] = experiment: Induction of apoptosis in human Bel-7402 cells assessed as viable cells at 5 uM incubated for 24 hrs by Annexin V and dead cell assay kit (reference value: 91.00%); type: functional; details: read-out: Activity
[6] = Toxicity in ICR mouse assessed as change in red blood cell count at 100 mg/kg, ip qd (reference value: 7.05 10^12/L); type: organism-based; details: in vivo
HeLa = experiment: Cytotoxicity against human HeLa cells assessed as reduction in cell viability incubated for 72 hrs by MTT assay; type: functional, cell-based
[7] = Chronic toxicity in ICR mouse assessed as effect on kidney morphology at 100 mg/kg, ip qd measured after 26 days by H and E staining method; type: organism-based; details: in vivo, 624 h, time 26 day
[8] = Toxicity in ICR mouse assessed as change in monocyte count at 100 mg/kg, ip qd (reference value: 0.1 10^9/L); type: organism-based; details: in vivo
Bel-7402 [9] = experiment: Induction of apoptosis in human Bel-7402 cells assessed as early apoptotic cells at 0.625 uM incubated for 24 hrs by Annexin V and dead cell assay kit (reference value: 3.75 %); type: functional
[10] = Chronic toxicity in ICR mouse assessed as effect on lung morphology at 100 mg/kg, ip qd measured after 26 days by H and E staining method; type: organism-based; details: in vivo, 624 h, time 26 day
[11] = Toxicity in ICR mouse assessed as change in lymphocyte count at 100 mg/kg, ip qd (reference value: 3.0 10^9/L); type: organism-based; details: in vivo
Bel-7402 [12] = experiment: Induction of apoptosis in human Bel-7402 cells assessed as early apoptotic cells at 2.5 uM incubated for 24 hrs in presence of U0126 by Annexin V and Dead cell kit assay (reference value: 3.7 %); type: functional
[13] = Toxicity in ICR mouse assessed as change in monocyte level at 100 mg/kg, ip qd (reference value: 3.2 %); type: organism-based; details: in vivo
[14] = Toxicity in ICR mouse assessed as change in white blood cell count at 100 mg/kg, ip qd (reference value: 4.0 10^9/L); type: organism-based; details: in vivo
Bel-7402 [15] = experiment: Induction of apoptosis in human Bel-7402 cells assessed as late apoptotic cells at 1.25 uM incubated for 24 hrs by Annexin V and dead cell assay kit (reference value: 4.45 %); type: functional
Bel-7402 [16] = experiment: Cytotoxicity against human Bel-7402 cells assessed as inhibition rate at 5 uM by MTT assay; type: functional, cell-based; details: time 72.0 hrs, TDE = time-dependent effect
[17] = Cmax in Sprague-Dawley rat at 20 mg/kg, ip measured for 0.03 to 24 hrs by UPLC-MS analysis; type: ADME, organism-based; design: time lower 0.03 hrs, dose 20 mg/kg, time upper 24 hrs, route ip; details: in vivo
[18] = Chronic toxicity in ICR mouse assessed as effect on spleen morphology at 100 mg/kg, ip qd measured after 26 days by H and E staining method; type: organism-based; details: in vivo, 624 h, time 26 day
Bel-7402 [19] = experiment: Induction of apoptosis in human Bel-7402 cells assessed as dead cells at 2.5 uM incubated for 24 hrs by Annexin V and dead cell assay kit (reference value: 0.80 %); type: functional
[20] = Toxicity in BALB/c nude mouse xenografted with Bel-7402 cells assessed as behavioural change at 20 mg/kg, ip qd; type: organism-based; details: in vivo
Bel-7402 [21] = experiment: Effect on AKT signalling pathway in human Bel-7402 cells assessed as decrease in phosphorylated-AKT level upto 2.5 uM incubated for 24 hrs by Western blot analysis; type: functional, cell-based
Bel-7402 [22] = experiment: Effect on ERK signalling pathway in human Bel-7402 cells assessed as increase in phosphorylated-ERK level upto 2.5 uM incubated for 24 hrs by Western blot analysis; type: functional, cell-based
Bel-7402 [23] = experiment: Cytotoxicity against human Bel-7402 cells assessed as LDH release at 2.5 uM incubated for 24 hrs by LDH assay; type: functional, cell-based
[24] = Sub-chronic toxicity in ICR mouse assessed as behavioural change at 100 mg/kg/day, ip for 26 days; type: organism-based; details: in vivo, 624 h, time 26 day
[25] = Acute toxicity in ICR mouse assessed as behavioural change at 100 to 500 mg/kg, ip; type: organism-based; details: in vivo, dose 100-500 mg/kg

CC[C@H](C)/C=C(C)/C=C/C1=CC2=C(Cl)C(=O)[C@](C)(O)C(=O)C2=CN1Cc1ccc(OC(F)(F)F)cc1
half-life [1]: 2.5 h
viability at 0.625 µM (Bel-7402 [2]): 91.6%
Activity [3]: Non-Toxic
Activity [4]: Non-Toxic
viability at 5 µM (Bel-7402 [5]): 8.2%
Activity [6]: 8.37 10^12/L
IC50 (HeLa): 2.78 µM
Activity [7]: Non-Toxic
Activity [8]: 0.3 10^9/L
Activity (Bel-7402 [9]): 4.7%
Activity [10]: Non-Toxic
Activity [11]: 1.7 10^9/L
Activity (Bel-7402 [12]): 26.1%
Activity [13]: 8.1%
Activity [14]: 3.4 10^9/L
Activity (Bel-7402 [15]): 5.75%
Activity (Bel-7402 [16]): Tde
Cmax [17]: 5590 ng/mL
Activity [18]: Non-Toxic
Activity (Bel-7402 [19]): 3.35%
Activity [20]: Non-Toxic
Activity (Bel-7402 [21]): Active
Activity (Bel-7402 [22]): Active
Activity (Bel-7402 [23]): Active
Activity [24]: Non-Toxic
Activity [25]: Non-Toxic
